In patent US12157741B2, “Macrocyclic inhibitors of DYRK1A” (DANA-FARBER CANCER INSTITUTE, INC., priority 2018, dated 2024):
Like-named read-outs stand apart in the source and are kept apart here.

Legend:
Type in all cases: binding
various enzymes [1] = molecular target: various enzymes (Homo sapiens, UniProt P57078); details: compound 1 uM
Procedure: (§1) Ambit profiling was conducted in accordance with the manufacturer's instructions.

various enzymes [2] = molecular target: various enzymes (Homo sapiens, UniProt Q92772); details: compound 1 uM
Procedure: as §1

various enzymes [3] = molecular target: various enzymes (Homo sapiens, UniProt Q13237); details: compound 1 uM
Procedure: as §1

various enzymes [4] = molecular target: various enzymes (Homo sapiens, UniProt Q00526); details: compound 1 uM
Sequence of various enzymes (Homo sapiens, UniProt Q00526) (Q00526 whole entry): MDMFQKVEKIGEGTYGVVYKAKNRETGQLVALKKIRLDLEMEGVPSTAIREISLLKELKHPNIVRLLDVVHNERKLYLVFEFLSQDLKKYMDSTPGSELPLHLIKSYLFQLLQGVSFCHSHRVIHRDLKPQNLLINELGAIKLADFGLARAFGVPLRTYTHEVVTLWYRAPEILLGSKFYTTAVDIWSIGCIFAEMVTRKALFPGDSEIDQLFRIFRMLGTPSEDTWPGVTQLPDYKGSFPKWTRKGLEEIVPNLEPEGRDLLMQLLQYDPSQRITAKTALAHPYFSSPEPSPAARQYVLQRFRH
Procedure: as §1

various enzymes [5] = molecular target: various enzymes (Homo sapiens, UniProt P78362); details: compound 1 uM
Procedure: as §1

various enzymes [6] = molecular target: various enzymes (Homo sapiens, UniProt P07332); details: compound 1 uM
Sequence of various enzymes (Homo sapiens, UniProt P07332) (P07332 whole entry): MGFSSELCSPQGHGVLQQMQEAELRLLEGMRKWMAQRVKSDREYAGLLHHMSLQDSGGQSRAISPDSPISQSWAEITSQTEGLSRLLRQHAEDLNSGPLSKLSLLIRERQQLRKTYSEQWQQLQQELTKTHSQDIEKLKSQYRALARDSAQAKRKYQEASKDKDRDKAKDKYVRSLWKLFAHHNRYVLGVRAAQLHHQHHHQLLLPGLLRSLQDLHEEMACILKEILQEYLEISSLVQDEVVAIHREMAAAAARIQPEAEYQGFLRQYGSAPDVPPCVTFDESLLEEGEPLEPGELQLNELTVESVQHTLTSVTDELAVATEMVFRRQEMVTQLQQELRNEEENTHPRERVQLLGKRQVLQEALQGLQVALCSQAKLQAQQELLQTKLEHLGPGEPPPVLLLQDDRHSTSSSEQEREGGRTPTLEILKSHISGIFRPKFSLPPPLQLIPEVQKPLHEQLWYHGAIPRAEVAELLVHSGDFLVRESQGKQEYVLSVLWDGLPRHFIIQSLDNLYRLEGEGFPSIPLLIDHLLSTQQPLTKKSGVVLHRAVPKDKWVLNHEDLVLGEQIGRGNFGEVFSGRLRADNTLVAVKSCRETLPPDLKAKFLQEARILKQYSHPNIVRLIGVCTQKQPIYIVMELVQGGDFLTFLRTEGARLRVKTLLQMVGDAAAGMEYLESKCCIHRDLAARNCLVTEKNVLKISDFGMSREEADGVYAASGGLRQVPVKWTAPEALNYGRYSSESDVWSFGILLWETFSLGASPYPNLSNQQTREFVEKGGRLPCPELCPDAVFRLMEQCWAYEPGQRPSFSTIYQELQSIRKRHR
Procedure: as §1

various enzymes [7] = molecular target: various enzymes (Homo sapiens, UniProt P42680); details: compound 1 uM
Procedure: as §1

various enzymes [8] = molecular target: various enzymes (Homo sapiens, UniProt P12931); details: compound 1 uM
Procedure: as §1

various enzymes [9] = molecular target: various enzymes (Homo sapiens, UniProt P16591); details: compound 1 uM
Procedure: as §1

various enzymes [10] = molecular target: various enzymes (Homo sapiens, UniProt Q9BZL6); details: compound 1 uM
Procedure: as §1

various enzymes [11] = molecular target: various enzymes (Homo sapiens, UniProt P21127); details: compound 1 uM
Procedure: as §1

various enzymes [12] = molecular target: various enzymes (Homo sapiens, UniProt P00533, DEL752-759); details: compound 1 uM
Procedure: as §1

various enzymes [13] = molecular target: various enzymes (Homo sapiens, UniProt O75914); details: compound 1 uM
Procedure: as §1

various enzymes [14] = molecular target: various enzymes (Homo sapiens, UniProt O94921); details: compound 1 uM
Procedure: as §1

various enzymes [15] = molecular target: various enzymes (Homo sapiens, UniProt Q15208); details: compound 1 uM
Sequence of various enzymes (Homo sapiens, UniProt Q15208) (Q15208 whole entry): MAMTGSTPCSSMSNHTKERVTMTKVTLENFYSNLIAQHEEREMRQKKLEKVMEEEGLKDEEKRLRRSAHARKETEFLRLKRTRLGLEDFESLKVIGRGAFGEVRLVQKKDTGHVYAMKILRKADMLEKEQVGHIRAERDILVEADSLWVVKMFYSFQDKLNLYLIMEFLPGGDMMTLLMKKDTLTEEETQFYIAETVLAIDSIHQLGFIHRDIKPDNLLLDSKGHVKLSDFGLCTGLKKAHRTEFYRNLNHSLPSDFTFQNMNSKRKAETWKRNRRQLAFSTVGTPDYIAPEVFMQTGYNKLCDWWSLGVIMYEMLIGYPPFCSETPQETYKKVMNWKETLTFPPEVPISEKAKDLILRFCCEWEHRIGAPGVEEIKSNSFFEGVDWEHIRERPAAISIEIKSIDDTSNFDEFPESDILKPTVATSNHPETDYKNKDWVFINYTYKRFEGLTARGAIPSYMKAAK
Procedure: as §1

various enzymes [16] = molecular target: various enzymes (Homo sapiens, UniProt P21860); details: compound 1 uM
Procedure: as §1

various enzymes [17] = molecular target: various enzymes (Homo sapiens, UniProt Q9UQB9); details: compound 1 uM
Procedure: as §1

various enzymes [18] = molecular target: various enzymes (Homo sapiens, UniProt P50613); details: compound 1 uM
Procedure: as §1

various enzymes [19] = molecular target: various enzymes (Homo sapiens, UniProt Q9UF33); details: compound 1 uM
Sequence of various enzymes (Homo sapiens, UniProt Q9UF33) (Q9UF33 23-1036): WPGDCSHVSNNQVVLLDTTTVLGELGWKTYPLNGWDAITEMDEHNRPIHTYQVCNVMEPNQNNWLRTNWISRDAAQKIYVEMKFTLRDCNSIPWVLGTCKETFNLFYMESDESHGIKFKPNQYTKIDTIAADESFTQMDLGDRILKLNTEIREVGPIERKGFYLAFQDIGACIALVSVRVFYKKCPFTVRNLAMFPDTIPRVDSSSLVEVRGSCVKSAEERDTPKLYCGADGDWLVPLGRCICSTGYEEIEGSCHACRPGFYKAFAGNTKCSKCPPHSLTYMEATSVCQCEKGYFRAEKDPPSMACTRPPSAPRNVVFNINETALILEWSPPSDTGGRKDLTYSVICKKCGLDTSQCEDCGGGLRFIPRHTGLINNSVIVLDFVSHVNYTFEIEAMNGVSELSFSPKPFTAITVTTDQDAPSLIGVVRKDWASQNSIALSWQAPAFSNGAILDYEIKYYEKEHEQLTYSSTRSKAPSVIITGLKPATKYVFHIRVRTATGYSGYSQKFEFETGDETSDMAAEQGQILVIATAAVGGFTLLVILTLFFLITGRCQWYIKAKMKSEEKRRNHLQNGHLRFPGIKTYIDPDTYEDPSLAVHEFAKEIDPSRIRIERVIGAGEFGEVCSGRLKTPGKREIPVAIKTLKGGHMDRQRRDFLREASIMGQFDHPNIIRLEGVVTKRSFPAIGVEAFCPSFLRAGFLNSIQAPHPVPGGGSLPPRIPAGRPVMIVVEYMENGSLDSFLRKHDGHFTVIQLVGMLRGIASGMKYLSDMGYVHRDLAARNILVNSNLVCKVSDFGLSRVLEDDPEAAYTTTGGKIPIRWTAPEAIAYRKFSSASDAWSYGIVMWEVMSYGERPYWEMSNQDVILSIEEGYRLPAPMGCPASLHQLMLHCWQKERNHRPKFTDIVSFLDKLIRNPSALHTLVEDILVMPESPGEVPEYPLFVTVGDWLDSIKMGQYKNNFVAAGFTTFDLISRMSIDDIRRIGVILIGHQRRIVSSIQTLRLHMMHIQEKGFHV
Procedure: as §1

various enzymes [20] = molecular target: various enzymes (Homo sapiens, UniProt P27361); details: compound 1 uM
Procedure: as §1

various enzymes [21] = molecular target: various enzymes (Homo sapiens, UniProt Q9Y243); details: compound 1 uM
Procedure: as §1

various enzymes [22] = molecular target: various enzymes (Homo sapiens, UniProt Q9Y6R4); details: compound 1 uM
Sequence of various enzymes (Homo sapiens, UniProt Q9Y6R4) (Q9Y6R4 whole entry): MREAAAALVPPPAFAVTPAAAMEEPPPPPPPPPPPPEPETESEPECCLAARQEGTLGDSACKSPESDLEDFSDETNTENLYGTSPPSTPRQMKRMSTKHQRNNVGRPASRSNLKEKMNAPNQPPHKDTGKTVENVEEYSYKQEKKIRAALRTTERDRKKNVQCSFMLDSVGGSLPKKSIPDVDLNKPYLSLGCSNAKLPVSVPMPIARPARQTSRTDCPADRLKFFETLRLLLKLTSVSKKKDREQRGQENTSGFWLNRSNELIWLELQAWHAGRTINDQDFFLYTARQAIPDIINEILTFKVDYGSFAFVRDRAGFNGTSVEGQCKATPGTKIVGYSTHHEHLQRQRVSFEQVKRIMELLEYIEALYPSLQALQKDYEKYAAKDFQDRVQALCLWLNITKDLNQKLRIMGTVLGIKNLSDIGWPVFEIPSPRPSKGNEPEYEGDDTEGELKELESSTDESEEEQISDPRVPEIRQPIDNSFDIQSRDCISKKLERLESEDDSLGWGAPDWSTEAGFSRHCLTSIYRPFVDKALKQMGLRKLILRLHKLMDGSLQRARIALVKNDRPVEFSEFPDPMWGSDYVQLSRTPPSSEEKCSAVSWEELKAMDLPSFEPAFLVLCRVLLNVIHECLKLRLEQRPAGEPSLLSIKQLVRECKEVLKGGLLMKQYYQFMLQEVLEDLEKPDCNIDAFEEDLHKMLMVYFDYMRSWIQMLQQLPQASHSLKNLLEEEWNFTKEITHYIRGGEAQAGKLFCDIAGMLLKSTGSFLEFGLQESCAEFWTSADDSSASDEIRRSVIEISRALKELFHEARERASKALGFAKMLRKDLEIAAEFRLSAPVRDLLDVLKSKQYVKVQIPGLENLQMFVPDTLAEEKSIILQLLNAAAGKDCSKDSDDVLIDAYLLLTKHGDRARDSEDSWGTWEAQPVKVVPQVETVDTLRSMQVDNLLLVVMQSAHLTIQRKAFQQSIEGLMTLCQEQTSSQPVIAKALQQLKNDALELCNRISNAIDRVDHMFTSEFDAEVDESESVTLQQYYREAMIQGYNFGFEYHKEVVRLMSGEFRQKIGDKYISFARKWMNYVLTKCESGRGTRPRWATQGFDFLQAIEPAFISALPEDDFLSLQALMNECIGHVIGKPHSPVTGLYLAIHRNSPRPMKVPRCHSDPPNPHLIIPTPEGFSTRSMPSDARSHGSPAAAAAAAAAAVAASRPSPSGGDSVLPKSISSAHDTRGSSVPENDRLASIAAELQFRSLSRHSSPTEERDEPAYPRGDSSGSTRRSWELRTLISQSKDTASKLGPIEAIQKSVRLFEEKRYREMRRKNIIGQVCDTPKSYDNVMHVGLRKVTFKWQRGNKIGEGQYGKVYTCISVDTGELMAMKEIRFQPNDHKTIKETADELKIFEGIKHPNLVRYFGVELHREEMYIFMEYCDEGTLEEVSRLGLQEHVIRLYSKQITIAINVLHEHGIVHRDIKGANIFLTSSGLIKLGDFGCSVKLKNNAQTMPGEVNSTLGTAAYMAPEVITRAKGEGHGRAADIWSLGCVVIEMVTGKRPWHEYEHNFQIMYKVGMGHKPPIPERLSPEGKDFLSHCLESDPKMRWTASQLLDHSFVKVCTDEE
Procedure: as §1

various enzymes [23] = molecular target: various enzymes (Homo sapiens, UniProt P35968); details: compound 1 uM
Procedure: as §1

various enzymes [24] = molecular target: various enzymes (Homo sapiens, UniProt P08069); details: compound 1 uM
Procedure: as §1

various enzymes [25] = molecular target: various enzymes (Homo sapiens, UniProt Q9UM73, L1196M)
Procedure: as §1

various enzymes [26] = molecular target: T1, various enzymes (Homo sapiens, UniProt O75385); details: compound 1 uM
T1 sequence (O75385 1-1050): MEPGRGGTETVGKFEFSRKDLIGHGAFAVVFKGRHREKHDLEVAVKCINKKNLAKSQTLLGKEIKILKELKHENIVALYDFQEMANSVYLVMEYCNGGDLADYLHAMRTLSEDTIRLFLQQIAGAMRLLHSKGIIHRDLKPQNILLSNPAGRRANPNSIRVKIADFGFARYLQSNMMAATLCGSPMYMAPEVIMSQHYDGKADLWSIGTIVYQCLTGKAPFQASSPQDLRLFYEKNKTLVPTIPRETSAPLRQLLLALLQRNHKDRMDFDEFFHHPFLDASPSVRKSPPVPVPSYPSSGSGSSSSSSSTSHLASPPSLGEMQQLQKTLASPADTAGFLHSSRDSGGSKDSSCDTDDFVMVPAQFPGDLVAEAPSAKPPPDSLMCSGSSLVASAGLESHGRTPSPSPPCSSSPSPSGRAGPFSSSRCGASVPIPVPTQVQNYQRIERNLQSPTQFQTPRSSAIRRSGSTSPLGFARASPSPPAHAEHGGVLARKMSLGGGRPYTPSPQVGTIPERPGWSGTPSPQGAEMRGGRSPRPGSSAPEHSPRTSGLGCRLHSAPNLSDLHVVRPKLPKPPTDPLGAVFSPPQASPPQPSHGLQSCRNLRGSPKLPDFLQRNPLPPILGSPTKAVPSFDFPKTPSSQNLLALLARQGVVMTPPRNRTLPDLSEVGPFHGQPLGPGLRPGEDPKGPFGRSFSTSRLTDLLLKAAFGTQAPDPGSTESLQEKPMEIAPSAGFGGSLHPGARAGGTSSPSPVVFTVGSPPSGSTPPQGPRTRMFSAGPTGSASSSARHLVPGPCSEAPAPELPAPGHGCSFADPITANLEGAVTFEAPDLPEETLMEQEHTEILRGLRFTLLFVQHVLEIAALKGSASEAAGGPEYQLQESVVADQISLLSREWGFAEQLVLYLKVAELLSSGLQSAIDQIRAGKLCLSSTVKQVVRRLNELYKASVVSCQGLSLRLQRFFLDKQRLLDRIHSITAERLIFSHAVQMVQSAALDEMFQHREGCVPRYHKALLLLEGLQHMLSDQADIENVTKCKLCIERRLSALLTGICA
Procedure: as §1

various enzymes [27] = molecular target: various enzymes (Homo sapiens, UniProt Q8N4C8); details: compound 1 uM
Procedure: as §1

various enzymes [28] = molecular target: various enzymes (Homo sapiens, UniProt Q14289); details: compound 1 uM
Procedure: as §1

various enzymes [29] = molecular target: various enzymes (Homo sapiens, UniProt O43683); details: compound 1 uM
Procedure: as §1

various enzymes [30] = molecular target: various enzymes (Homo sapiens, UniProt O75582); details: compound 1 uM
Sequence of various enzymes (Homo sapiens, UniProt O75582) (O75582 whole entry): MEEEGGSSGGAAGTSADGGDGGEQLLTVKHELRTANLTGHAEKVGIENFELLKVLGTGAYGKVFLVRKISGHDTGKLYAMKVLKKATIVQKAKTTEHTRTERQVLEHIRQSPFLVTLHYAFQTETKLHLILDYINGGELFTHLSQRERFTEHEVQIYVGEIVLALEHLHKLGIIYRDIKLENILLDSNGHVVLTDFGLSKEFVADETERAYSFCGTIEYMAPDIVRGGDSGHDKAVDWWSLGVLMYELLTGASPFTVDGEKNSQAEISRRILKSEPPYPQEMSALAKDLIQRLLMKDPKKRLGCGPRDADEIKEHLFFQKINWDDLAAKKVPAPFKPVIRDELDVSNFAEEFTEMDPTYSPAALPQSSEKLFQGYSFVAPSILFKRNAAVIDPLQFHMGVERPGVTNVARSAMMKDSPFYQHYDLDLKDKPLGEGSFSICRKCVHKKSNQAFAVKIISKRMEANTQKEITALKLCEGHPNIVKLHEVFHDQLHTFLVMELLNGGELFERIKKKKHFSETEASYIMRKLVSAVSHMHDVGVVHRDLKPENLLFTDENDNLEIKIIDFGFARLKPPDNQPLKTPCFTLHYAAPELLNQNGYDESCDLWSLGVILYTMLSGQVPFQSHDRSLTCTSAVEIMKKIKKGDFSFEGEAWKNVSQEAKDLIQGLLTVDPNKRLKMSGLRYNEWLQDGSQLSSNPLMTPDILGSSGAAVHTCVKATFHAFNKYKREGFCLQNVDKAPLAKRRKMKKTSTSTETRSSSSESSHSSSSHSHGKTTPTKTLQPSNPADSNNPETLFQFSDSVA
Procedure: as §1

| SMILES | Ambit profiling: RIPK4 (various enzymes [1]) | Ambit profiling: CDKL2 (various enzymes [2]) | Ambit profiling: PRKG2 (various enzymes [3]) | Ambit profiling: CDK3 (various enzymes [4]) | Ambit profiling: SRPK2 (various enzymes [5]) | Ambit profiling: FES (various enzymes [6]) | Ambit profiling: TEC (various enzymes [7]) | Ambit profiling: SRC (various enzymes [8]) | Ambit profiling: FER (various enzymes [9]) | Ambit profiling: PRKD2 (various enzymes [10]) | Ambit profiling: CDC2L1 (various enzymes [11]) | Ambit profiling: EGFR(S752-I759del) (various enzymes [12]) | Ambit profiling: PAK3 (various enzymes [13]) | Ambit profiling: PFTK1 (various enzymes [14]) | Ambit profiling: NDR1 (various enzymes [15]) | Ambit profiling: ERBB3 (various enzymes [16]) | Ambit profiling: AURKC (various enzymes [17]) | Ambit profiling: CDK7 (various enzymes [18]) | Ambit profiling: EPHA6 (various enzymes [19]) | Ambit profiling: ERK1 (various enzymes [20]) | further results |
| --- | --- | --- | --- | --- | --- | --- | --- | --- | --- | --- | --- | --- | --- | --- | --- | --- | --- | --- | --- | --- | --- |
| COc1c2c(nn1C)CN(C(C)C)C(=O)CCCn1cc(c(C(F)(F)F)n1)-c1c[nH]c3ncc-2cc13 [Compound 50, (Z)-5-isopropyl-35-methoxy-31-methyl-13-(trifluoromethyl)-11H,21H,31H-5-aza-2(3,5)-pyrrolo[2,3-b]pyridina-1(4,1),3(4,3)-dipyrazolacyclononaphan-6-one] | 85 | 20 | 87 | 78 | 74 | 31 | 32 | 13 | 10 | 55 | 73 | 48 | 24 | 60 | 64 | 100 | 39 | 6 | 14 | 95 | Ambit profiling: AKT3 (various enzymes [21]): 100; Ambit profiling: MAP3K4 (various enzymes [22]): 60; Ambit profiling: VEGFR2 (various enzymes [23]): 0.8; Ambit profiling: IGF1R (various enzymes [24]): 69; Ambit profiling: ALK(L1196M) (various enzymes [25]): 12; Ambit profiling: ULK1 (various enzymes [26]): 93; Ambit profiling: MINK (various enzymes [27]): 0; Ambit profiling: PYK2 (various enzymes [28]): 19; Ambit profiling: BUB1 (various enzymes [29]): 35; Ambit profiling: RPS6KA5(Kin.Dom.1-N-terminal) (various enzymes [30]): 18; Ambit profiling: RPS6KA5(Kin.Dom.2-C-terminal) (various enzymes [30]): 72 |
| CC(C)N1Cc2nn(C)cc2-c2cnc3[nH]cc(c3c2)-c2cn(nc2C(F)(F)F)CCCC1=O [Compound 45, (Z)-5-isopropyl-31-methyl-13-(trifluoromethyl)-11H,21H,31H-5-aza-2(3,5)-pyrrolo[2,3-b]pyridina-1(4,1),3(4,3)-dipyrazolacyclononaphan-6-one] | 100 | 14 | 100 | 33 | 100 | 74 | 97 | 25 | 49 | 43 | 100 | 66 | 12 | 14 | 59 | 100 | 20 | 13 | 18 | 100 | Ambit profiling: AKT3 (various enzymes [21]): 100; Ambit profiling: MAP3K4 (various enzymes [22]): 94; Ambit profiling: VEGFR2 (various enzymes [23]): 2; Ambit profiling: IGF1R (various enzymes [24]): 86; Ambit profiling: ALK(L1196M) (various enzymes [25]; compound 1 uM): 18; Ambit profiling: ULK1 (various enzymes [26]): 75; Ambit profiling: MINK (various enzymes [27]): 1.8; Ambit profiling: PYK2 (various enzymes [28]): 30; Ambit profiling: BUB1 (various enzymes [29]): 81; Ambit profiling: RPS6KA5(Kin.Dom.1-N-terminal) (various enzymes [30]): 70; Ambit profiling: RPS6KA5(Kin.Dom.2-C-terminal) (various enzymes [30]): 100 |
